Read-outs that look alike come from different tables or passages of the source.
Experiments:
db/db mice = assay: Fed plasma glucose in db/db mice, dose-response study (Example 11); type: in vivo, mouse
Experimental: (§1) Seven-week old male C57B1/6J-Lepr db/db mice (Jackson Laboratory, Bar Harbor, Me.) were fed a diet with a fat content of about 14% (Formulab Diet 5008) and were subcutaneously injected with ISIS 116847 (SEQ ID NO: 143), ISIS 141923 (SEQ ID NO: 144), or ISIS 148985 (SEQ ID NO: 118), an antisense inhibitor of glucose-6-phosphatase translocase, […] […] Saline-injected animals served as controls. 48 hours after the eighth and final dose was administered, mice were sacrificed and target levels were evaluated in liver. RNA isolation and target mRNA expression level quantitation were performed as described by other examples herein.
For seven animals per treatment group, plasma glucose was measured with routine clinical analyzer instruments (e.g. Olympus Clinical Analyzer). Data are expressed as averages per treatment group.

[1] = Liver triglycerides and glycogen stores in db/db mice (Table 8); type: in vivo, mouse
Experimental: as §1
Patients with the human glycogen storage disease type 1b have mutations in the glucose-6-phosphatase translocase gene. Because one manifestation of these mutations is a defect in hepatic glycogen deposition, the db/db mice were further evaluated at the end of the treatment period for liver glycogen stores. Tissue glycogen levels were measured using the Glucose Trinder Reagent (Sigma-Aldrich, St. Louis, Mo.). Tissue triglyceride levels were measured using a Triglyceride GPO Assay from Roche Diagnostics (Indianapolis, Ind.). Liver triglyceride levels were used to assess hepatic steatosis, or accumulation of lipids in the liver. Hepatic steatosis was also assessed by routine histological analysis of frozen liver tissue sections stained with oil red 0 stain, which is commonly used to visualize lipid deposits, and counterstained with hematoxylin and eosin, to visualize nuclei and cytoplasm, respectively. Data are presented in Table 8 as the averages from 5 animals per treatment group.

[2] = test system: glucose-6-phosphatase translocase mRNA; assay: Target mRNA reduction in liver of ob/ob mice; type: in vivo, mouse; conditions: 25 mg/kg s.c. twice weekly, eight doses
Experimental: Seven-week old male C57B1/6J-Lep ob/ob mice (Jackson Laboratory, Bar Harbor, Me.) were fed a diet with a fat content of about 22% and were subcutaneously injected with oligonucleotides at a dose of 25 mg/kg two times per week. A total of eight doses were administered. Glucose-6-phosphatase translocase antisense oligonucleotides used were ISIS 148985 (SEQ ID NO: 118) and ISIS 149008 (SEQ ID NO: 141). […]; incorporated herein as SEQ ID NO: 143), targeted to mouse PTEN, was used as a positive control. Saline-injected animals served as negative controls. […] Glucose-6-phosphatase translocase mRNA levels in ob/ob mouse livers were measured at the end of the study using RIBOGREENTM RNA quantification reagent (Molecular Probes, Inc. Eugene, Oreg.) as taught in previous examples above.

[3] = mouse, in vivo, sc, 25 mg/kg
Experimental: Seven-week old male C57B1/6J-Lep ob/ob mice (Jackson Laboratory, Bar Harbor, Me.) were fed a diet with a fat content of about 22% and were subcutaneously injected with oligonucleotides at a dose of 25 mg/kg two times per week. A total of eight doses were administered. Glucose-6-phosphatase translocase antisense oligonucleotides used were ISIS 148985 (SEQ ID NO: 118) and ISIS 149008 (SEQ ID NO: 141). ISIS 116847 ([…]; incorporated herein as SEQ ID NO: 143), targeted to mouse PTEN, was used as a positive control. Saline-injected animals served as negative controls. Animals were sacrificed 48 hours after the last dose of oligonucleotide was administered, and liver triglycerides, liver glycogen, and target reduction in liver were measured.
Hepatic steatosis, or buildup of lipids in the liver, was assessed by measuring the liver triglyceride content. Tissue triglycerides were measured with a Triglyceride GPO assay from Roche Diagnostics (Indianapolis, Ind.). Data are presented as averages from 5 animals per treatment group. Triglycerides were approximately 178 mg/g for saline treated mice, 162 mg/g for ISIS 149008-treated mice, 168 mg/g for ISIS 148985-treated mice, and 187 mg/g for ISIS 116847 (PTEN)-treated mice. Thus liver triglycerides were not increased in antisense-treated animals.
Tissue glycogen was measured using the Glucose Trinder Reagent (Sigma-Aldrich, St. Louis, Mo.). Glycogen levels of mice treated with saline alone were approximately 31 mg/g of tissue. Levels in mice treated with the positive control antisense compound ISIS 116847, targeted to PTEN, had levels of approximately 25 mg/g. Mice treated with ISIS 149008 or 148985, the antisense inhibitors of glucose-6-phosphatase translocase, had glycogen levels of approximately 31 mg/g and 30 mg/g, respectively.

ob/ob mice = assay: Oral glucose tolerance test in ob/ob mice (Table 6); type: in vivo, mouse; conditions: 25 mg/kg twice weekly; for plasma glucose, OGTT: after 6th dose
Experimental: The mice described in Example 7 were evaluated for performance on glucose tolerance tests after the 6th dose of saline or antisense oligonucleotides. Through measurement of glucose levels following the administration of a bolus of glucose, tolerance tests assess the physiological response to a glucose challenge.
Oral glucose tolerance tests (OGTT) were performed during the third week of treatment with saline, ISIS 116847 (targeted to PTEN, SEQ ID NO: 143), ISIS 148985 (SEQ ID NO: 118), or ISIS 149008 (SEQ ID NO: 141). To provide a baseline glucose level, fasted blood glucose levels were measured before the challenge. Glucose was administered by oral gavage via an 18 g gavage needle at a dose of 1 g/kg. Plasma glucose levels were measured for 30, 60, 90 and 120 minutes post-challenge using an Ascencia Glucometer Elite XL (Bayer, Tarrytown, N.Y.).
The results are presented in Table 6 as the average result (plasma glucose in mg/dL) from each treatment group (n=7). Saline-treated mice served as the control to which glucose levels were compared.

[4] = 25 mg/kg twice weekly, week 0, saline 280
[5] = 25 mg/kg twice weekly, week 2, saline 517
[6] = 25 mg/kg twice weekly, week 4, saline 510
[7] = 25 mg/kg twice weekly 4 weeks (25 mg/mL [sic]), saline 25
[8] = 25 mg/kg twice weekly 4 weeks (25 mg/mL [sic]), saline 47
[9] = 0 min post-glucose challenge (fasted)

CCTTCCCTGAAGGTTCCTCC (chemistry not given here) [ISIS 141923, scrambled control oligonucleotide, negative control, reference compound]
fed plasma glucose (db/db mice; [4]): approximately 287 mg/dL | fed plasma glucose (db/db mice; [5]): ~456 mg/dL | fed plasma glucose (db/db mice; [6]): ~510 mg/dL | Liver Triglycerides [1, 7]: 30 mg/g | Liver Glycogen [1, 8]: 43 mg/g

CTGCTAGCCTCTGGATTTGA (chemistry not given here) [ISIS 116847, positive control oligonucleotide targeted to mouse PTEN, reference compound]
Glucose-6-phosphatase translocase mRNA levels in liver, reduction compared to saline [2]: approximately 36% | Liver Triglycerides [3]: ~187 mg/g | Liver glycogen levels [3]: approximately 25 mg/g | plasma glucose, OGTT (ob/ob mice; [9]): 286 mg/dL | plasma glucose, OGTT (ob/ob mice; 30 min post-glucose challenge): 290 mg/dL | plasma glucose, OGTT (ob/ob mice; 60 min post-glucose challenge): 238 mg/dL | plasma glucose, OGTT (ob/ob mice; 90 min post-glucose challenge): 229 mg/dL | plasma glucose, OGTT (ob/ob mice; 120 min post-glucose challenge): 194 mg/dL | fed plasma glucose (db/db mice; [4]): approximately 282 mg/dL | fed plasma glucose (db/db mice; [5]): ~291 mg/dL | fed plasma glucose (db/db mice; [6]): ~224 mg/dL | Liver Triglycerides [1, 7]: 67 mg/g | Liver Glycogen [1, 8]: 39 mg/g

GCTCCATAGCGAGGACTCGA (chemistry not given here) [ISIS 148985]
Glucose-6-phosphatase translocase mRNA levels in liver, reduction compared to saline [2]: approximately 52% | Liver Triglycerides [3]: ~168 mg/g | Liver glycogen levels [3]: ~30 mg/g | plasma glucose, OGTT (ob/ob mice; [9]): 293 mg/dL | plasma glucose, OGTT (ob/ob mice; 30 min post-glucose challenge): 489 mg/dL | plasma glucose, OGTT (ob/ob mice; 60 min post-glucose challenge): 433 mg/dL | plasma glucose, OGTT (ob/ob mice; 90 min post-glucose challenge): 331 mg/dL | plasma glucose, OGTT (ob/ob mice; 120 min post-glucose challenge): 305 mg/dL | fed plasma glucose (db/db mice; [4]): approximately 289 mg/dL | fed plasma glucose (db/db mice; [5]): ~394 mg/dL | fed plasma glucose (db/db mice; [6]): ~443 mg/dL | Liver Glycogen [1, 8]: 47 mg/g

TATACAAGTCGGTTTGCCCT (chemistry not given here) [ISIS 149008]
Glucose-6-phosphatase translocase mRNA levels in liver, reduction compared to saline [2]: approximately 87% | Liver Triglycerides [3]: ~162 mg/g | Liver glycogen levels [3]: approximately 31 mg/g | plasma glucose, OGTT (ob/ob mice; [9]): 237 mg/dL | plasma glucose, OGTT (ob/ob mice; 30 min post-glucose challenge): 372 mg/dL | plasma glucose, OGTT (ob/ob mice; 60 min post-glucose challenge): 276 mg/dL | plasma glucose, OGTT (ob/ob mice; 90 min post-glucose challenge): 238 mg/dL | plasma glucose, OGTT (ob/ob mice; 120 min post-glucose challenge): 214 mg/dL | glucose tolerance (in words) (ob/ob mice; OGTT): improved glucose tolerance | fed plasma glucose (db/db mice; 6.25 mg/kg twice weekly, week 0): approximately 289 mg/dL | fed plasma glucose (db/db mice; 6.25 mg/kg twice weekly, week 2): ~397 mg/dL | fed plasma glucose (db/db mice; 6.25 mg/kg twice weekly, week 4): ~478 mg/dL | fed plasma glucose (db/db mice; 12.5 mg/kg twice weekly, week 0): approximately 283 mg/dL | fed plasma glucose (db/db mice; 12.5 mg/kg twice weekly, week 2): ~411 mg/dL | fed plasma glucose (db/db mice; 12.5 mg/kg twice weekly, week 4): ~203 mg/dL | fed plasma glucose (db/db mice; [4]): approximately 286 mg/dL | fed plasma glucose (db/db mice; [5]): ~359 mg/dL | fed plasma glucose (db/db mice; [6]): ~299 mg/dL | Liver Triglycerides [1, 7]: 58 mg/g | Liver Glycogen [1, 8]: 45 mg/g | Liver Glycogen ([1]; dose 12.5 mg/mL [sic]): 45 mg/g | Liver Triglycerides ([1]; dose 12.5 mg/mL [sic]): 41 mg/g | Liver Glycogen ([1]; dose printed 6 mg/mL): 48 mg/g | Liver Triglycerides ([1]; dose printed 6 mg/mL): 33 mg/g

From US8258114B2, “Modulation of glucose-6-phosphatase translocase expression” (Isis Pharmaceuticals, Inc., priority 2004, dated 2012)
